Reference: US11116760B2 (Gilead Sciences, Inc., priority 2018, dated 2021)

Biological target: α4β7 integrin (Homo sapiens (Human), UniProt P13612+P26010)
Test: α4β7 Integrin Cell Capture Assay
Format: cell-based
Conditions: RPMI8866 cells captured on MadCAM-1 extracellular domain-coated plate

α4β7 integrin, sequence (P13612 34-1032): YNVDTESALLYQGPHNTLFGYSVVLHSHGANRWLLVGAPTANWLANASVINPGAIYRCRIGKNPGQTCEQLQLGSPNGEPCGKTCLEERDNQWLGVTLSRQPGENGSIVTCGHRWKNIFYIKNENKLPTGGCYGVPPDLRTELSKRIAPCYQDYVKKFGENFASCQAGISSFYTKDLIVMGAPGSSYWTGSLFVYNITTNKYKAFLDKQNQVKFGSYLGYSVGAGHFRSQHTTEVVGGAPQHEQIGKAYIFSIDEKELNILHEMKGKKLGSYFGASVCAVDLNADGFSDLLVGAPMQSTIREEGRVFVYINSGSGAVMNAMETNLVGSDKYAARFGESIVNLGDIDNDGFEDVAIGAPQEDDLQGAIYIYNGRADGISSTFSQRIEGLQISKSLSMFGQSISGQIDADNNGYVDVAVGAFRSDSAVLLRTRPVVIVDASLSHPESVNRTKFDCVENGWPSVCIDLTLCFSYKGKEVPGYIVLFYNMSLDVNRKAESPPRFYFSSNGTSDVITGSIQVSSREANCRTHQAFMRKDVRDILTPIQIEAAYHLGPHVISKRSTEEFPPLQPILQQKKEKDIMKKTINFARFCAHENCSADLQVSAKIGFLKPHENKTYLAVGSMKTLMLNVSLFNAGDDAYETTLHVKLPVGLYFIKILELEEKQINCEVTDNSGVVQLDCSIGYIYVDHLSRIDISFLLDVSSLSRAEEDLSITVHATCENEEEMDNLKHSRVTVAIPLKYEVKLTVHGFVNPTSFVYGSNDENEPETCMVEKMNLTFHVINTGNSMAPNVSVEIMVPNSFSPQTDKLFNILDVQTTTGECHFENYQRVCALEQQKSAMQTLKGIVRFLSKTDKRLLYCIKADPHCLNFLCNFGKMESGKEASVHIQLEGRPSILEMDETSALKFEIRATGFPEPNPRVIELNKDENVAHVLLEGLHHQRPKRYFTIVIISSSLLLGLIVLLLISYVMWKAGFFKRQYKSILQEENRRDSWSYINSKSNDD
α4β7 integrin, sequence (P26010 20-798): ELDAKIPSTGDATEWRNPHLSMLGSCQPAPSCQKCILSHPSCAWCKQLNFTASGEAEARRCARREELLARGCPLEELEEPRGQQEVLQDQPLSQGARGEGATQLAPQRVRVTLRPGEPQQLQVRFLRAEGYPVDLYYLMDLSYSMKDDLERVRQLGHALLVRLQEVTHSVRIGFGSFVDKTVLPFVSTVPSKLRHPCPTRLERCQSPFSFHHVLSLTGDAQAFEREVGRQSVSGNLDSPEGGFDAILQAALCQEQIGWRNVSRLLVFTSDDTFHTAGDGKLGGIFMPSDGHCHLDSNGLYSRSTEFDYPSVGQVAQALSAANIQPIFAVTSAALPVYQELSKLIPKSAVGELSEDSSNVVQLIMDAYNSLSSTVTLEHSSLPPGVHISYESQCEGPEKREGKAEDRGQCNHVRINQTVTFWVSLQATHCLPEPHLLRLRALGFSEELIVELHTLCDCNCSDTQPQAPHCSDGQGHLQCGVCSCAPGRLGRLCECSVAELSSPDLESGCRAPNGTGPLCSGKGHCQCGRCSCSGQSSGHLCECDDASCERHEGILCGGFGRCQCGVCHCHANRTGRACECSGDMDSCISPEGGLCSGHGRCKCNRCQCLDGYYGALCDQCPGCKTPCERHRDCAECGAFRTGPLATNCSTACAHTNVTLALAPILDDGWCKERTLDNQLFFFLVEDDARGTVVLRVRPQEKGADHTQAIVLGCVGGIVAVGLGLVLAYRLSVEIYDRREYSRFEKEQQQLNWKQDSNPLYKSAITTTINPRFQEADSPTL

Question: For `Cc1cc(N2CCOC[C@@H]2C(F)(F)F)cc(F)c1C(=O)N[C@@H](Cc1ccc(-c2c(C(F)(F)F)nc(C)n(C)c2=O)c2ncccc12)C(=O)O` [Example 458], which EC50 is on record?
Answer: Its EC50 is 0.09 nM.

Question: For `Cc1cc(N2CCOC[C@@H]2C(F)(F)F)cc(F)c1C(=O)N[C@@H](Cc1ccc(-n2c(=O)c3cccnc3n(C)c2=O)c2ncccc12)C(=O)O` [Example 432], which EC50 is on record?
Answer: Its EC50 is 0.11 nM.

Question: For `Cc1cc(N2CCOC[C@@H]2C(F)(F)F)cc(F)c1C(=O)N[C@@H](Cc1ccc(-c2nc(C)c(C)n(C)c2=O)c2ncccc12)C(=O)O` [Example 477], which EC50 is on record?
Answer: Its EC50 is 0.115 nM.

Question: Which EC50 does the source give for `CC[C@@H](Nc1cc(F)c(C(=O)N[C@@H](Cc2ccc(-c3c(C(F)(F)F)n(C)cc(C)c3=O)c3ncccc23)C(=O)O)c(F)c1)C(F)(F)F` [Example 479] here?
Answer: The EC50 was 1.19 nM.

Question: Which EC50 does the source give for `Cc1cc(N2CCOC[C@@H]2C(F)(F)F)cc(F)c1C(=O)N[C@@H](Cc1ccc(-n2c(=O)c3ccc(F)cc3n(C)c2=O)c2ncccc12)C(=O)O` [Example 431] here?
Answer: The EC50 was 0.094 nM.

Question: `Cc1cc(N2CCOC[C@@H]2C(F)(F)F)cc(F)c1C(=O)N[C@@H](Cc1ccc(-n2c(=O)c3c(n(C)c2=O)CCOC3)c2ncccc12)C(=O)O` [Example 412] was tested. Which EC50 did it give?
Answer: Its EC50 is 0.091 nM.

Question: `Cn1c(=O)n(-c2ccc(C[C@H](NC(=O)c3c(F)cc(N4CCOC[C@@H]4C(F)(F)F)cc3F)C(=O)O)c3cccnc23)c(=O)c2cc(F)c(F)cc21` [Example 422] was tested. Which EC50 did it give?
Answer: Its EC50 is 0.231 nM.

Question: How did the EC50 turn out when `CC[C@@H](Nc1cc(F)c(C(=O)N[C@@H](Cc2ccc(-c3nc(C)c(C)n(C)c3=O)c3ncccc23)C(=O)O)c(F)c1F)C(F)(F)F` [Example 456] was run?
Answer: Its EC50 is 0.248 nM.

Same assay, conditions: Table 1; capture of α4β7 expressing RPM18866 cells on MadCAM-1 extracellular domain-coated plate

Question: For `O=C(N[C@@H](Cc1ccc(-c2ccc(C3CC3)cc2Cl)c2ncccc12)C(=O)O)c1c(F)cc(NS(=O)(=O)c2ccc(-c3ccnc(F)c3)cc2)cc1F` [Example 54, (S)-3-(8-(2-chloro-4-cyclopropylphenyl)quinolin-5-yl)-2-(2,6-difluoro-4-((4-(2-fluoropyridin-4-yl)phenyl)sulfonamido)benzamido)propanoic acid], which EC50 is on record?
Answer: The EC50 was 37.4 nM.

Question: With `COc1ccc(C(F)(F)F)c(-c2ccc(C[C@H](NC(=O)c3c(Cl)cccc3Cl)C(=O)O)c3cccnc23)n1` [Example 69, (S)-2-(2,6-dichlorobenzamido)-3-(8-(6-methoxy-3-(trifluoromethyl)pyridin-2-yl)quinolin-5-yl)propanoic acid] as the compound, how does the EC50 read?
Answer: The EC50 was 28.9 nM.

Question: `O=C(N[C@@H](Cc1ccc(-c2ccsc2)c2ncccc12)C(=O)O)c1c(F)cc(NS(=O)(=O)c2ccc(-c3ccnc(F)c3)cc2)cc1F` [Example 52, (S)-2-(2,6-difluoro-4-((4-(2-fluoropyridin-4-yl)phenyl)sulfonamido)benzamido)-3-(8-(thiophen-3-yl)quinolin-5-yl)propanoic acid] was tested. Which EC50 did it give?
Answer: Its EC50 is 91.5 nM.

Question: How did the EC50 turn out when `CS(=O)(=O)c1cc(F)ccc1-c1ccc(C[C@H](NC(=O)c2c(F)cc(NS(=O)(=O)c3ccc(-c4ccnc(F)c4)cc3)cc2F)C(=O)O)c2cccnc12` [Example 61, (S)-2-(2,6-difluoro-4-((4-(2-fluoropyridin-4-yl)phenyl)sulfonamido)benzamido)-3-(8-(4-fluoro-2-(methylsulfonyl)phenyl)quinolin-5-yl)propanoic acid] was run?
Answer: The EC50 was 4.2 nM.

Question: With `COc1cnn(C)c(=O)c1-c1ccc(C[C@H](NC(=O)c2c(F)cccc2F)C(=O)O)c2cccnc12` [Example 70, (S)-2-(2,6-difluorobenzamido)-3-(8-(5-methoxy-2-methyl-3-oxo-2,3-dihydropyridazin-4-yl)quinolin-5-yl)propanoic acid] as the compound, how does the EC50 read?
Answer: Its EC50 is 10.7 nM.

Question: How did the EC50 turn out when `N#Cc1ccc(-c2ccc(C[C@H](NC(=O)c3c(F)cc(N4CCOCC4C(F)(F)F)cc3F)C(=O)O)c3cccnc23)c(Cl)c1` (stereo partly drawn) [Example 81] was run?
Answer: The EC50 was 6 nM.

Question: Which EC50 does the source give for `N#Cc1ccc(-c2ccc(C[C@H](NC(=O)c3c(F)cc(N4CCNC[C@@H]4C(F)(F)F)cc3F)C(=O)O)c3cccnc23)c(Cl)c1` [Example 77, (S)-3-(8-(2-chloro-4-cyanophenyl)quinolin-5-yl)-2-(2,6-difluoro-4-((R)-2-(trifluoromethyl)piperazin-1-yl)benzamido)propanoic acid] here?
Answer: Its EC50 is 90.7 nM.

Question: `CC[C@@H](Nc1cc(F)c(C(=O)N[C@@H](Cc2ccc(-c3c(C(F)(F)F)cc(C)n(C)c3=O)c3ncccc23)C(=O)O)cc1C)C(F)(F)F` [Example 145, (S)-3-(8-(1,6-dimethyl-2-oxo-4-(trifluoromethyl)-1,2-dihydropyridin-3-yl)quinolin-5-yl)-2-(2-fluoro-5-methyl-4-(((R)-1,1,1-trifluorobutan-2-yl)amino)benzamido)propanoic acid] was tested. Which EC50 did it give?
Answer: Its EC50 is 3.1 nM.

Question: `CC[C@@H](Nc1cc(F)c(C(=O)N[C@@H](Cc2ccc(-c3c(C(F)(F)F)cc(C)n(C)c3=O)c3ncc(F)cc23)C(=O)O)c(F)c1)C(F)(F)F` [Example 140, (S)-2-(2,6-difluoro-4-(((R)-1,1,1-trifluorobutan-2-yl)amino)benzamido)-3-(8-(1,6-dimethyl-2-oxo-4-(trifluoromethyl)-1,2-dihydropyridin-3-yl)-3-fluoroquinolin-5-yl)propanoic acid] was tested. Which EC50 did it give?
Answer: Its EC50 is 0.5 nM.

Question: `COc1cc(F)cc(C(F)(F)F)c1-c1ccc(C[C@H](NC(=O)c2c(F)cccc2F)C(=O)O)c2cccnc12` [Example 6, (2S)-2-(2,6-difluorobenzamido)-3-(8-(4-fluoro-2-methoxy-6-(trifluoromethyl)phenyl)quinolin-5-yl)propanoic acid] was tested. Which EC50 did it give?
Answer: Its EC50 is 4.5 nM.

Question: `Cc1cc(C(F)(F)F)c(-c2ccc(C[C@H](NC(=O)c3c(F)cc(N4CCOC[C@@H]4C(F)(F)F)cc3F)C(=O)O)c3cccnc23)c(=O)n1C` [Example 96, (S)-2-(2,6-difluoro-4-((R)-3-(trifluoromethyl)morpholino)benzamido)-3-(8-(1,6-dimethyl-2-oxo-4-(trifluoromethyl)-1,2-dihydropyridin-3-yl)quinolin-5-yl)propanoic acid] was tested. Which EC50 did it give?
Answer: The EC50 was 0.2 nM.

Question: Which EC50 does the source give for `Cc1cc(Cl)c(-c2ccc(C[C@H](NC(=O)c3c(F)cc(N4CCOC[C@@H]4C(F)(F)F)cc3F)C(=O)O)c3cccnc23)c(=O)n1C` [Example 100, (S)-3-(8-(4-chloro-1,6-dimethyl-2-oxo-1,2-dihydropyridin-3-yl)quinolin-5-yl)-2-(2,6-difluoro-4-((R)-3-(trifluoromethyl)morpholino)benzamido)propanoic acid] here?
Answer: Its EC50 is 0.7 nM.

Same assay, conditions: Table 2; capture of α4β7 expressing RPM18866 cells on MadCAM-1 extracellular domain-coated plate

Question: How did the EC50 turn out when `Cc1ccc(C(F)(F)F)c(-c2ccc(C[C@H](NC(=O)c3c(F)cc(N4CCOC[C@@H]4C(F)(F)F)cc3F)C(=O)O)c3cccnc23)n1` [Example 270] was run?
Answer: Its EC50 is 4.4 nM.

Question: How did the EC50 turn out when `CCc1nc(-c2ccc(C[C@H](NC(=O)c3c(F)cc(N[C@H](CC)C(F)(F)F)cc3F)C(=O)O)c3cccnc23)c(=O)n(C)c1CC` [Example 176] was run?
Answer: Its EC50 is 0.9 nM.

Question: For `Cn1cc(-c2ccc(C[C@H](NC(=O)c3c(F)cc(N[C@H](c4ccc(Cl)cc4)C(F)(F)F)cc3F)C(=O)O)c3cccnc23)c(=O)n(C)c1=O` [Example 232], which EC50 is on record?
Answer: Its EC50 is 0.9 nM.

Question: For `N#Cc1ccc(-c2ccc(C[C@H](NC(=O)c3c(Cl)cc4[nH]c(C5CC5)cc4c3Cl)C(=O)O)c3cccnc23)c(Cl)c1` [Example 225], which EC50 is on record?
Answer: The EC50 was 53.7 nM.

Question: How did the EC50 turn out when `Cc1cc(C(F)(F)F)c(-c2ccc(C[C@H](NC(=O)c3c(F)cc(N4C[C@@H](C)OC[C@@H]4C)cc3F)C(=O)O)c3cccnc23)c(=O)n1C` [Example 191] was run?
Answer: The EC50 was 1.3 nM.

Question: Which EC50 does the source give for `Cc1c(-c2ccc(C[C@H](NC(=O)c3c(F)cc(N[C@H](C)C(F)(F)F)cc3F)C(=O)O)c3cccnc23)c(=O)n(C)c(=O)n1C` [Example 340] here?
Answer: Its EC50 is 0.6 nM.

Question: For `Cn1c(=O)c(-c2ccc(C[C@H](NC(=O)c3c(F)cc(N4CCOC[C@H]4C(F)(F)F)cc3F)C(=O)O)c3cccnc23)cc2cnccc21` [Example 192], which EC50 is on record?
Answer: Its EC50 is 1.4 nM.

Question: For `O=C(N[C@@H](Cc1ccc(-c2nccc(OC3CC3)c2C(F)(F)F)c2ncccc12)C(=O)O)c1c(F)cc(N2CCOC[C@@H]2C(F)(F)F)cc1F` [Example 233], which EC50 is on record?
Answer: Its EC50 is 2.2 nM.

Question: With `Cc1cc(C(F)(F)F)c(-c2ccc(C[C@H](NC(=O)c3c(F)cc(N4CCOC[C@@H]4C)cc3F)C(=O)O)c3cccnc23)c(=O)n1C` [Example 180] as the compound, how does the EC50 read?
Answer: Its EC50 is 0.9 nM.

Question: For `Cc1[nH]c2cc(Cl)c(C(=O)N[C@@H](Cc3ccc(-c4ccc(C#N)cc4Cl)c4ncccc34)C(=O)O)c(Cl)c2c1C` [Example 174], which EC50 is on record?
Answer: The EC50 was 97.8 nM.

Question: How did the EC50 turn out when `O=C(N[C@@H](Cc1ccc(-c2cc3ccccc3oc2=O)c2ncccc12)C(=O)O)c1c(Cl)cccc1Cl` [Example 196] was run?
Answer: The EC50 was 63.1 nM.

Question: With `CC[C@@H](N(c1cc(F)c(C(=O)N[C@@H](Cc2ccc(-c3c(C(F)(F)F)cc(C)n(C)c3=O)c3ncccc23)C(=O)O)c(F)c1)C1CC1)C(F)(F)F` [Example 172] as the compound, how does the EC50 read?
Answer: The EC50 was 0.5 nM.

Question: How did the EC50 turn out when `C[C@@H](Nc1cc(F)c(C(=O)N[C@@H](Cc2ccc(-c3cn(C)c(=O)n(C)c3=O)c3ncccc23)C(=O)O)c(F)c1)C(F)(F)F` [Example 211] was run?
Answer: Its EC50 is 1.9 nM.

Question: With `Cc1cc(C(F)(F)F)c(-c2ccc(C[C@H](NC(=O)c3c(F)cc(N4CCOC[C@@H]4C(F)(F)F)cc3F)C(=O)O)c3cc(F)cnc23)c(=O)n1C` [Example 159] as the compound, how does the EC50 read?
Answer: Its EC50 is 0.3 nM.

Question: For `Cc1nc(-c2ccc(C[C@H](NC(=O)c3c(F)cccc3F)C(=O)O)c3cccnc23)c(C(F)(F)F)c2ccccc12` [Example 318], which EC50 is on record?
Answer: Its EC50 is 14.3 nM.

Question: With `COc1c(-c2ccc(C[C@H](NC(=O)c3c(F)cc(N4CCOC[C@H]4C(F)(F)F)cc3F)C(=O)O)c3cccnc23)c(=O)n(C)c2ccccc12` [Example 205] as the compound, how does the EC50 read?
Answer: Its EC50 is 1.7 nM.

Question: For `N#Cc1ccc(-c2ccc(C[C@H](NC(=O)c3c(F)cc(N[C@H](c4ccccc4)C(F)F)cc3F)C(=O)O)c3cccnc23)c(Cl)c1` [Example 324], which EC50 is on record?
Answer: Its EC50 is 18.7 nM.

Question: `CC[C@@H](Nc1cc(F)c(C(=O)N[C@@H](Cc2ccc(-c3nc(C)c(C)c(C)c3C(F)(F)F)c3ncccc23)C(=O)O)c(F)c1)C(F)(F)F` [Example 236] was tested. Which EC50 did it give?
Answer: The EC50 was 2.6 nM.

Question: How did the EC50 turn out when `N#Cc1ccc(-c2ccc(C[C@H](NC(=O)c3c(F)cc(C(=O)N[C@H]4C[C@@H](O)C4)cc3F)C(=O)O)c3cccnc23)c(Cl)c1` [Example 267] was run?
Answer: Its EC50 is 77 nM.

Question: How did the EC50 turn out when `O=C(N[C@@H](Cc1ccc(-c2ncc3ccc(C4CC4)cc3c2C(F)(F)F)c2ncccc12)C(=O)O)c1c(Cl)cccc1Cl` [Example 319] was run?
Answer: The EC50 was 14.4 nM.

Question: Which EC50 does the source give for `Cc1cc(C(F)(F)F)c(-c2ccc(C[C@H](NC(=O)c3c(F)cc(N4C[C@H](C)OC[C@@H]4C(F)(F)F)cc3F)C(=O)O)c3cccnc23)c(=O)n1C` [Example 198] here?
Answer: The EC50 was 1.4 nM.

Question: For `COCCNC(=O)c1cc(F)c(C(=O)N[C@@H](Cc2ccc(-c3ccc(C#N)cc3Cl)c3ncccc23)C(=O)O)c(F)c1` [Example 178], which EC50 is on record?
Answer: The EC50 was 37.1 nM.
